{
  "source": "patent US11447534B2",
  "about": "“Peptide complex with immunodulatory and anti-inflammatory function” (NATIONAL INSTITUTE OF IMMUNOLOGY, priority 2018, dated 2022)",
  "key": {"[1]": {"system": "co-culture of osteoblast (MC3T3-E1) and osteoclast (from RAW264.7)", "assay": "Osteoblast-osteoclast co-culture, mRNA by Real Time PCR", "type": "cell-based, mouse", "details": "24 hours of incubation, vs basal", "description": "Effect of A-O complex on bone cells: To determine whether A-O complex modulated bone cells, A-O complex was added to a co-culture system of osteoblast and osteoclast. MC3T3-E1 sub-clone 4 (pre-osteoblast cell line derived from new born mouse calvaria purchased from American Type Culture Collection) were cultured in α-MEM (Invitrogen, USA) supplemented with 10% fetal bovine serum and 1% anti-anti (Invitrogen, USA). Osteoblasts within the 4th and 10th passages were used for this study. For cell culture experiments 2×10^6 cells were seeded in 60 mm Petri plates. To initiate differentiation, cells were treated with 10 mM β-glycerophosphate and 50 μg/ml ascorbic acid. Murine RAW264.7 (macrophage) cells were used for generating osteoclasts. The cells were maintained in RPMI 1640 media supplemented with glutamine (2 mM) and FBS (10%). No trypsination was performed and subculture was done using a cell scraper after cultures reached 65-70% confluency. For generation of osteoclasts from RAW264.7 cells, cells of density 12000 cells per cm^2 were stimulated with 25 ng per ml of RANKL (directly with seeding) for 72-96 hours after which large multinucleated cells are seen and confirmed using TRAP5b assay. […] Thereafter the co-culture was exposed to A-O complex and the mRNA levels of osteocalcin and IGF-1 were analyzed by Real Time PCR."}, "Abeta42": {"biological_target": "T1, Abeta42 (Homo sapiens, UniProt P05067)", "T1 construct": "of Abeta 1-42 peptide; Molecular weight = 4514.1; purchased r-peptide", "T1 sequence (P05067 672-713)": "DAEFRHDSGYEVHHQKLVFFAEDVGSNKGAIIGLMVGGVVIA", "assay": "Abeta42 fibrillization in situ (TEM, Thioflavin T binding assay)", "type": "biochemical", "details": "Abeta42 100 μM + Glu-OC 3 ng vs Abeta42 control, 8th hour", "description": "For this study, different concentrations of Glu-OC viz. […] After keeping the samples for 5 minutes, the excess was washed off with ultrapure water and surplus sample and water were wicked away using absorbent paper. The samples were negatively stained using 1% uranyl acetate stain, dried and analyzed in a transmission electron microscope CM10 Philips operated at 80 kV. […] ThT assay measures the changes in fluorescence intensity of ThT upon binding to amyloid fibrils. […] The resulting ThT fluorescence intensities of samples were measured at an emission wavelength of 480 nm and excitation wavelength of 440 nm and 5 nm slit width using a Jobin Vyon Horiba Fluoromax-4 spectrofluorimeter. The inner filter effect was taken into account using the Equation: Fc=F×anti log[(Aex+Aem)/2] where Fc is the corrected flourescence and F is apparent fluorescence, Aex and Aem are the absorbances of the samples at excitation and emission wavelengths respectively."}, "[2]": {"system": "ConA activated macrophages", "assay": "qPCR in ConA activated macrophages", "type": "cell-based, murine", "description": "To determine the immunomodulatory effect of A-O complex, serum starved macrophages were exposed to the complex. Macrophages (1×10^6 cells) were serum starved for 30 min after which cells were exposed to A-O complex. After 1 hour, cells were washed with 1×PBS (pH 7.4) and harvested using cell dissociation solution. Then the cells were suspended in ice cold staining buffer (100 μl) and centrifuged at 1000 rpm for 5 min at 4° C. The cells were resuspended in 100 μl ice cold staining buffer for 10 min at 2-8° C. and pellet resuspended in 50 μl staining media. To this 2 μl of Fc block or anti-mouse CD16/CD32 was added for 10 mins and washed with staining buffer. The cells were resuspended in 50 μl of staining buffer and incubated with fluorescent-tagged CD36 antibody (e-biosciences) for 25-30 min on ice. The excess stain was removed by washing and pelleting down using staining buffer thrice by spinning and removal of staining buffer. The cell suspension was fixed 1:1 ratio (staining buffer:fixative) and analysed within 48 h in ARIA3 DIVA software version 6.1. Further, expression of MHC-II, and CD-36, was also determined in the microglial cells via qPCR. For this RNA extraction was performed using RNA extraction kit from Qiagen according to the manufacturer's instruction. cDNA synthesis was performed using cDNA synthesis kit from Qiagen. […] Following amplification, fold changes in gene expression versus β-actin (reference) analysis was determined using the 2^ΔΔCT(Livak) method. To determine the immunomodulatory effect of A-O complex on activated macrophages, macrophages were activated with Concanavalin-A (Con-A), for 30 minutes and the changes in mRNA levels of Cd36, Lrp1, Cd11b, Cd74 and Apoe were analyzed by qPCR."}, "EOC20 microglial cells": {"system": "EOC20 microglial cells", "assay": "F-actin confocal microscopy of unstimulated EOC20 microglia", "type": "cell-based", "details": "serum starved, 1 hour", "method": "To determine the morphological changes in microglia upon exposure to A-O complex, F-actin confocal microscopy was performed. For that poly-L-lysine coated coverslips were placed in the 24 well culture dishes containing 1 ml of complete media and cells were seeded over the cover slips. […] Post treatment, the cell culture media was then removed and cells were washed thrice with 1×PBS (pH 7.4). Cells were fixed in 4% PFA for 10 min at room temperature and then washed thrice with 1×PBS (pH 7.4). Cells were then exposed to Phalloidin-actin (F-actin) antibody for 20 min in the dark. Thereafter, cells were washed twice with 1×PBS (pH7.4) and mounted using DAPI Fluormount (Invitrogen, Carlsbad, Calif., USA). Cells were imaged on a Zeiss LSM510 META laser-scanning confocal microscope. A PlanApochromat 63/1.4 oil-immersion DIC M27 objective (Zeiss) was used for image acquisition. [Concentration of Phalloidin-actin antibody: 300 U of Phalloidin-actin (Invitrogen, Carlsbad, USA) was dissolved in 1.5 ml methanol to yield a concentration of 200 U/ml or 6.6 μM. 1 U of phalloidin is equal to 5 μl of methanolic stock]."}, "macrophages": {"system": "macrophages", "assay": "Uptake of fluorescent CD36 ligands by macrophages (FACS)", "type": "cell-based, murine", "details": "macrophages pre-treated half an hour, ligand 1 hour", "description": "Briefly, 50 μl of 100 μM Abeta was pH adjusted to pH 9 with 5 microlitre of 1 M NaHCO3, followed by addition of 4 microlitre of the H2O solubilized reactive dye. Incubation at room temperature (˜22° C.) was performed for 15 min followed by immediate addition of 55 microlitre of the labeling reaction mixture onto a spin column packed with a 425 microlitre slurry of Biogel P-6 resin for removal of unincorporated dye. The resulting eluent (pH 7.4) was stored for up to 2 days at 4° C. or used immediately for cellular uptake experiments. Both ligands were exposed after pre-treatment of cells with A-O complex for half an hour. The ligands were exposed to cell cultures for 1 hour after which cells were either quenched with trypan blue (0.2%) or given acid wash."}},
  "data": [
    {"substance": "A-O complex: peptide complex of 100 μM Abeta1-42 (SEQ ID NO: 1) and 3 ng Glu-OC (SEQ ID NO: 2), incubated at 37° C. for 4 hours", "values": [
      {"measurement": "mRNA transcripts of IGF-1", "setting": "[1]", "value": "significantly higher"},
      {"measurement": "mRNA transcripts of osteocalcin", "setting": "[1]", "value": "significantly higher"},
      {"measurement": "ThT fluorescence emission", "setting": "Abeta42", "value": "high enhancement of fluorescence emission of ThT"},
      {"measurement": "mRNA level of Cd11b", "setting": "[2]", "value": "significantly reversed"},
      {"measurement": "mRNA level of Cd36", "setting": "[2]", "value": "significantly induced"},
      {"measurement": "mRNA level of Cd74", "setting": "[2]", "value": "significantly reversed"},
      {"measurement": "microglia morphology (F-actin)", "setting": "EOC20 microglial cells", "value": "rounded morphology with projections indicative of activation"},
      {"measurement": "uptake of mutant Abeta42 (mutant Aβ)", "setting": "macrophages", "value": "facilitates the uptake"},
      {"measurement": "uptake of oxidized-lipoprotein (oxLDL)", "setting": "macrophages", "value": "facilitates the uptake"}
    ]}
  ]
}
